Experimental data published in patent US20210128724A1 (priority 2019, published 2021).

B1: Galcanezumab (antibody, chains of the INN, looked up, V domains shown)
VH: QVQLVQSGAEVKKPGSSVKVSCKASGYTFGNYWMQWVRQAPGQGLEWMGAIYEGTGKTVYIQKFADRVTITADKSTSTAYMELSSLRSEDTAVYYCARLSDYVSGFGYWGQGTTVTVSS
VL: DIQMTQSPSSLSASVGDRVTITCRASKDISKYLNWYQQKPGKAPKLLIYYTSGYHSGVPSRFSGSGSGTDFTLTISSLQPEDFATYYCQQGDALPPTFGGGTKVEIK

Legend:
[1] = test system: neurons in the trigeminal ganglion; conditions: rat, in vivo
[2] = test system: Aδ-fibers in the trigeminal ganglion; conditions: rat, in vivo
[3] = test system: C-fibers in the trigeminal ganglion; conditions: rat, in vivo
[4] = set-up: species or system human; conditions: in vivo; for Development of post-traumatic syndrome after treatment within the first day after blast injury: sc
[5] = set-up: species or system human; conditions: in vivo
[6] = test system: trigeminovascular Aδ-nociceptors, high threshold (HT) neurons, C-fiber and wide dynamic range (WDR) neurons; conditions: rat, in vivo

Molecule | Baseline firing rate prior to CSD [1] [Hz] | Baseline firing rate, Aδ-neurons [2] [spikes/sec] | Effect on response to CSD in Aδ-neurons [2] | Baseline firing rate, C-fibers [3] [spikes/sec] | Effect on response to CSD in unmyelinated C-fibers [3] | Outcome after treatment once symptoms had developed after blast injury [4] | Development of post-traumatic syndrome after treatment within the first day after blast injury [4] | Outcome after treatment following 1 month of symptoms after head injury [5] | Outcome after treatment promptly after head injury, before onset of symptoms [5] | Activation of C-fiber and wide dynamic range (WDR) neurons [6] | Activation of trigeminovascular Aδ-nociceptors and high threshold (HT) neurons [6]
onabotulinumtoxinA [BoNT-A] | 0.7 | 0.7 | no significant difference | 0.7 | inhibited the response to CSD | headaches resolve a month after their treatment with decreased photophobia, dizziness, tinnitus and insomnia | do not develop any features of a post-traumatic syndrome | headaches are lessened in severity and frequency, they experience improved sleep and improved cognition | continues to do well | – | –
fremanezumab | – | – | – | – | – | – | – | – | – | not | blocked the activation
B1 | – | – | – | – | – | – | do not develop any features of a post-traumatic syndrome | – | – | – | –
